# Test results reported in publication PMC3759666, “Post-translational modification and conformational state of Heat Shock Protein 90 differentially affect binding of chemically diverse small molecule inhibitors” (Oncotarget, 2013).
# Tests used:
# yeast Hsp90 = target: T1, yeast Hsp90 (Saccharomyces cerevisiae, UniProt P02829); assay: DMS cross-linking of N domain dimers; p23 binding by fluorescence anisotropy; type: biochemical
# T1 construct: gene HSP82; purified yeast Hsp90
# yeast Hsp90 (Hsp82) [1] = target: T2, yeast Hsp90 (Hsp82) (Saccharomyces cerevisiae, UniProt P02829); assay: BODIPY-GA anisotropy/displacement; GA-bead capture from yeast lysate; type: binding
# T2 construct: wild-type NMC; coilNMC also measured
# Hsp90β = target: T3, Hsp90β (Homo sapiens, UniProt P08238)
# T3 construct: gene HSP90AB1
# yeast Hsp90 (Hsp82) [2] = target: T2, yeast Hsp90 (Hsp82); assay: PU-bead capture from yeast lysate; type: cell-based
# T2 sequence (P02829 whole entry): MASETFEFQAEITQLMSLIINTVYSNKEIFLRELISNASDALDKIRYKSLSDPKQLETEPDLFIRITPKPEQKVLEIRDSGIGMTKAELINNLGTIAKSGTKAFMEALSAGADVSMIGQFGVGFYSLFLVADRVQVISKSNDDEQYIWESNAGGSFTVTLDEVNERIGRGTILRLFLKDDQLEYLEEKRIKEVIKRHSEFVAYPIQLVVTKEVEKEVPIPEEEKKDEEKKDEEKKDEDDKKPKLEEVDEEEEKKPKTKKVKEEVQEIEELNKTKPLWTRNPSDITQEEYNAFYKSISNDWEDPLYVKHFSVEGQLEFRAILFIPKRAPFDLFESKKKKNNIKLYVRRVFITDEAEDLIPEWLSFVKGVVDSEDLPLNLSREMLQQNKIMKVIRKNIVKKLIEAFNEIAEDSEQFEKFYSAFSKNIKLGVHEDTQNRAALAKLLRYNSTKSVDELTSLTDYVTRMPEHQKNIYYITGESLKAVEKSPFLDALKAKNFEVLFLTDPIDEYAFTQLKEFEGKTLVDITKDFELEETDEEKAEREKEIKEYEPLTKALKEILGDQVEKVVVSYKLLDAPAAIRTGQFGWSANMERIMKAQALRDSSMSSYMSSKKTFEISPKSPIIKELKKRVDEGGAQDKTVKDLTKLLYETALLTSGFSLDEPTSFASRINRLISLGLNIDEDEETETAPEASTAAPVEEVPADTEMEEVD
# T3 sequence (P08238 2-724): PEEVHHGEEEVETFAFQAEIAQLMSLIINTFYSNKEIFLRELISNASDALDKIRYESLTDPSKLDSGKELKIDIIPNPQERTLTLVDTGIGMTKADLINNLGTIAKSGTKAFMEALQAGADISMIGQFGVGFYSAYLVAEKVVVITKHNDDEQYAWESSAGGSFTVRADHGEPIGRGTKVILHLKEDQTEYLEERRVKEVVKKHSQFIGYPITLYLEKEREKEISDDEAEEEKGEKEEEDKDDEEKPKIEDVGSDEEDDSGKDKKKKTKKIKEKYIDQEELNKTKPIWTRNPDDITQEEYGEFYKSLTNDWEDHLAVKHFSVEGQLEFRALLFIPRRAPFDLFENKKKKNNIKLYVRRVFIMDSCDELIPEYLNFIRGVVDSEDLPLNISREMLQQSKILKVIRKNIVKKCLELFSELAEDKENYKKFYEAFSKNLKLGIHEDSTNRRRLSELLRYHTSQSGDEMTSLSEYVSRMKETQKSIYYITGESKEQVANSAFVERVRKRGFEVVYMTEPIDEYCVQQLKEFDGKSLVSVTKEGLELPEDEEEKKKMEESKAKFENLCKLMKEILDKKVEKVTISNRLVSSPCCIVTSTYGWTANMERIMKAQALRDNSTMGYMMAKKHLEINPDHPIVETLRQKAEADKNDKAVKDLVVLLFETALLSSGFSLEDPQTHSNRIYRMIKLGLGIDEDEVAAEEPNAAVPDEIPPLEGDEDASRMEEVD
# T1 sequence (P02829 whole entry): as the sequence (P02829 whole entry) above
structure (smiles),measurement,setting,value
Nc1ncnc2c1ncn2[C@@H]1O[C@H](CO[P@](=O)(O)O[P@](=O)(O)NP(=O)(O)O)[C@@H](O)[C@H]1O [AMP-PNP],DMS cross-linking of N domain dimers; p23 binding by fluorescence anisotropy,yeast Hsp90,Only AMP-PNP promoted significant N domain dimerization (Figure 2F).
"COC1=C2C[C@@H](C)C[C@H](OC)[C@H](O)[C@@H](C)/C=C(\C)[C@H](OC(N)=O)[C@@H](OC)/C=C\C=C(/C)C(=O)NC(=CC1=O)C2=O [GA, geldanamycin]",BODIPY-GA anisotropy/displacement; GA-bead capture from yeast lysate,yeast Hsp90 (Hsp82) [1],Coiled-coil yeast Hsp90 (coilNMC) has a similar affinity for GA as wild-type Hsp90 (NMC)
same,GA-agarose capture of Flag-Hsp90β from 293-H cell lysate,Hsp90β,GA-beads bound the non-phosphorylatable mutants (Hsp90α-Y197F and Hsp90β-Y192F) similarly to wild-type Hsp90
"CC(C)NCCCn1c(Sc2cc3c(cc2I)OCO3)nc2c(N)ncnc21 [PU, PU-H71]",PU-bead capture from yeast lysate,yeast Hsp90 (Hsp82) [2],"both GA- and PU-beads efficiently isolated coiled-coil Hsp90 from yeast lysates, compared to wild-type Hsp90"
